Experimental data as given in US8881823B2, “Environmentally friendly low temperature breaker systems and related methods” (Halliburton Energy Services, Inc., priority 2011, dated 2014).

How the values were obtained:
[1] = set-up: species or system Alga; conditions: alga, in vivo
Method: (§1) GLDA was also tested for its eco-toxicological effect on various environmental subjects. In particular, the active toxicity of GLDA was measured on various organisms following OECD 201, 202 and 203 protocols.

[2] = tested on: Alga; conditions: Alga, in vivo, 72 h
Method: as §1

[3] = Biodegradability, OECD 301 D Closed Bottle Test
Excerpt: The same protocol was used to test EDTA (“DISSOLVINE AM3-40” available from AkzoNobel Corporate) and sodium acetate.

[4] = Calcite dissolving capacity of breaker systems; type: physicochemical; conditions: 2.5 g BARACARB 5 in 50 mL test fluid, one hour
Method: The calcite dissolving capacity of each breaker system was determined in the following manner. A known amount of a technical grade calcium carbonate (commercially available from Halliburton under the tradename “BARACARB 5”) was dried in an oven for 2 hours. […] The solution was subsequently filtered with a 1 micron fiber glass filter paper.

[5] = Dissolution and miscibility tests in sodium bromide brines; type: physicochemical; conditions: for % Complexed or Dissolved / Final Weight of BARACARB 5: 2.5 g BARACARB 5, 150° F., 16 hours
Method: Dissolution and miscibility tests were also performed on 20% GLDA in sodium bromide brines. 20% GLDA was mixed in various concentration of NaBr in order to evaluate the effect of brine concentration on the dissolving capacity of GLDA. Without being limited by theory, it is believed that reducing the amount of available free water in the brine reduced the dissociation rate of the acid functionalities on the breaker, which in turn reduced the amount of complexed calcium ions. These tests were performed in 20% v/v breaker systems in 10.2 lb/gal KCl/NaBr brine or 12.5 lb/gal NaBr brine. In each case, 2.5 g of BARACARB 5 calcium carbonate was added to the breaker systems at 150° F. for 16 hours. For comparison, a mineral acid breaker system was also tested.

[6] = 20% v/v breaker in 10.2 lb/gal KCl/NaBr
[7] = 20% v/v breaker in 12.5 lb/gal NaBr

In the case of `O=C(O)CC[C@@H](C(=O)O)N(CC(=O)O)CC(=O)O` [GLDA, L-glutamic acid N,N-diacetic acid], the EC50 at 72 h [1] is reported as greater than 100 µg/mL, the “72-h NOEC” value [2] is reported as “NOEC ≧ 100 mg/l” and the Biodegradability [3] is reported as “Easy”. For the same compound, the “biodegradability (in words)” value [3] was “readily biodegradable”, the “% Carbonate Complexed or Dissolved” value [4] was 19.6% and the “Final Weight of BARACARB 5, g” value [4] was 2.01 g. The “% Complexed or Dissolved” value [5, 6] was 49%, the Final Weight of BARACARB 5 [5, 6] was 1.27 g and the “% Complexed or Dissolved” value [5, 7] was 29%. The Final Weight of BARACARB 5 [5, 7] was 1.78 g, the “carbonate dissolved (FIG. 2)” value ([5]; higher brine concentration) was “less than 45%” and the “carbonate dissolved (FIG. 2)” value ([5]; lower brine concentration) was “more than 80%”.
